According to patent publication US20230295229A1, “PEPTIDE SELECTIVELY BINDING TO CANCER CELL-DERIVED EXOSOME, AND USES THEREOF” (KYUNGPOOK NATIONAL UNIVERSITY INDUSTRY-ACADEMIC COOPERATION …, priority 2020, published 2023):
Primed or numbered codes have the meaning given here. No end group written: not given here. FITC′ = not defined here

Key:
[1] = tested on: exosome release of A549 cells; assay: inhibition of exosome release, western blotting of exosome markers; type: cell-based, human; details: 10 μM compared to 2.5 and 5 μM
Method: In order to further identify the binding specificity of ExoPep to exosomes, GW4869 ([…], Sigma-Aldrich), a drug that inhibits the release of exosome out of cells, was treated to cells at various concentrations (2.5, 5, and 10 μM). Thereafter, exosomes were isolated, and electrophoresis and western blotting with antibodies against CD63, Alix, Tsg101, and calnexin (Abcam) were performed in the same manner as described in FIG. 1.

A549 cells [2] = assay: cell viability CCK-8 assay with GW4869; type: cell-based, human; details: various concentrations, 3 hours serum-free then 24 hours
A549 cells [3] = assay: internalization of exosomes and ExoPep after GW4869, immunofluorescence staining; type: cell-based, human; details: 10 μM GW4869
Method: Based on the above results, using 10 μM GW4869 inhibitor, the binding of the ExoPep peptide to the exosomes and internalization thereof were analyzed.

[4] = tested on: A549 tumor nude mouse model; assay: anticancer effect in the A549 tumor nude mouse model; type: in vivo
Method: To test anticancer effect using ExoPep-KLA in the A549 tumor nude mouse model, ExoPep-KLA peptides were pre-reacted with exosomes either alone or in vitro and then systemically administered intravenously for 3 weeks at the time points indicated in the protocol, and doxorubicin was administered once a week for 3 weeks (FIG. 14A).

[5] = tested on: A549 tumor nude mouse model; assay: co-administration of doxorubicin and ExoPep-KLA in the A549 tumor nude mouse model; type: in vivo
Method: In the A549 tumor nude mouse model, ExoPep-KLA peptide was administered three times a week at the indicated time points, and doxorubicin was administered once a week for three weeks. The timing of single and co-administration was shown in the treatment protocol (FIG. 16A).

[6] = tested on: A549 cell-derived exosome / A549 cells; assay: confocal microscopy of peptide internalization with exosomes; type: cell-based, human; details: 10 uM FITC-conjugated peptide, DiD-labeled exosomes, 37° C., 1 hour
Method: (§1) Media of A549, HEK293, and MDA-MB231 cells were collected, exosomes were isolated through ultracentrifugation, and exosomes were labeled with DiD fluorescence reagent (red), followed by a reaction with ExoPep peptide (FITC label, green). After the reaction, the cells were immobilized, and the nuclei were stained with DAPI (blue) to analyze with confocal microscopy. More specifically, the isolated exosomes and DiD (1:200 dilution) were reacted on a stirrer at 37° C. for 30 minutes. After adding Exoquick reagent, condition was maintained at 4° C. for 30 minutes, and then DiD-labeled exosomes were precipitated by centrifugation at 13000 rpm for 3 minutes. Thereafter, a mixture of 10 uM FITC-conjugated peptide and DiD-labeled exosomes was reacted with A549 cells at 37° C. for 1 hour. After washing three times, immobilization was performed using 2% paraformaldehyde (PFA). After washing again, cells were treated with 4′-6-diamidino-2-phenylindole (DAPI) for nucleus staining. Finally, after mounting, observation was followed using a confocal microscope (Zeiss, Oberkochen, Germany).

[7] = tested on: exosomes derived from normal HEK293 cells / HEK293 cells; assay: as above; type: cell-based; details: same manner
Method: as §1
On the other hand, the exosomes derived from normal HEK293 cells were treated in the same manner as described above and observed under a confocal microscope (Zeiss, Oberkochen, Germany).

[8] = tested on: A549 cell-derived exosomes; assay: inhibition of exosome internalization by magnetic removal of peptide-bound exosomes; type: cell-based, human; details: exosomes pretreated with biotin-labeled peptide, then removed with magnet
Method: (§2) In order to further identify the binding specificity of the ExoPep peptide to the A549 cell-derived exosome, the exosomes were labeled with a DID fluorescent dye, reacted with the biotin-labeled ExoPep peptide, and then conjugated with biotin by reacting the labeled avidin with magnetic particles. The complex of exosomes/biotin-peptide/avidin-magnetic particles prepared by the reaction was captured and removed using a magnet, and the remaining exosomes were treated to recipient cells (FIG. 5A).

[9] = tested on: exosomes derived from normal HEK293 cells; assay: as above; type: cell-based; details: exosomes pretreated with biotin-labeled peptide, then removed with magnet
Method: as §2
On the other hand, internalization of exosomes into recipient cells was not reduced by pretreatment with the control peptide (sequence: NSSSVDK) (FIG. 5B). In addition, when a similar experiment was conducted on exosomes derived from normal HEK293 cells, the internalization of exosomes into recipient cells was not inhibited by the ExoPep peptide of an example embodiment of the present disclosure as well as the control peptide (FIG. 5C).

A549 tumor mice = assay: in vivo distribution imaging of DiD-labeled exosomes with or without ExoPep; parameters: species or system mouse; details: without exosomes
Method: DiD-labeled A549 tumor mouse blood-derived exosomes and A549 cell-derived exosomes were reacted with ExoPep peptide, and image monitoring was performed for in vivo distribution. Tumor xenograft mice were prepared by subcutaneously implanting A549 cell suspension (5×10^6 cells) along with PBS into the right flank of 5-week-old female BALB/c nude mice. When the tumor size reached a volume of approximately 100-200 mm^3, the mice were anesthetized. A549 tumor mice was intravenously administered with DiD-labeled A549 tumor mouse blood-derived exosomes (mEXO) and a product obtained by reacting the exosomes (mEXO) with peptides (mEXO+ExoPep, n=3) as well as DiD-labeled A549 cell-derived exosomes (cEXO) and a product obtained by reacting the exosomes (cEXO) with peptides (cEXO+ExoPep, n=3). The inventors of the present disclosure used FITC-labeled control peptide and ExoPep (n=3) as controls. In vivo fluorescence images were analyzed using an IVIS imaging system (Caliper Life Sciences, Massachusetts, USA) at various time points (2, 4, 8, and 24 hours, respectively) after administration of DiD-labeled exosomes. In vitro fluorescence images of excised tumors and organs were collected 24 hours after administration. All major organs (liver, kidney, spleen, heart, and lung) having tumor tissues were separated, washed with PBS, and subjected to in vitro fluorescence analysis (n=3).

O=C(/C=C/c1ccc(/C=C/C(=O)Nc2ccc(C3=NCCN3)cc2)cc1)Nc1ccc(C2=NCCN2)cc1 [GW4869]
exosome markers such as CD63, Alix, and Tsg101 [1]: greatly reduced | cytotoxicity (CCK-8) (A549 cells [2]): did not show toxicity even at high concentration | internalization of exosomes and peptides bound therewith (A549 cells [3]): significantly reduced

COc1cccc2c1C(=O)c1c(O)c3c(c(O)c1C2=O)C[C@@](O)(C(=O)CO)C[C@@H]3O[C@H]1C[C@H](N)[C@H](O)[C@H](C)O1 [doxorubicin]
tumor growth ([4]; intravenous, 3 weeks): significantly inhibited | weight of tumor ([4]; mouse, in vivo): reduced | size of tumor ([5]; 2.5 mg/kg, compared to phosphate buffer): slightly reduced | size of tumor ([5]; 5 mg/kg): more strongly inhibited | metastatic nodules and microscopic nodules ([5]; 5 mg/kg, compared to buffer): significantly reduced

NSSSVDK (NSSSVDK-{FITC′}) [control peptide, reference compound]
peptide observed in cells (internalization with exosomes) [6]: not observed | peptide observed in cells (internalization with exosomes) [7]: not observed in the cells | internalization of exosomes into recipient cells [8]: not reduced | internalization of exosomes into recipient cells [9]: not inhibited | fluorescence signal of FITC-labeled peptide itself (A549 tumor mice): low signals
